Measurements: ChEMBL document CHEMBL1201862, “PubChem BioAssay data set” (2004)
Calls of active or inactive are those of the source.

Assays:
[1] = biological target: T1, RNA-binding protein pos-1 (Caenorhabditis elegans, UniProt G5EF15); test: inhibitors of POS-1/mex-3 RNA binding, dose response, biochemical, fluorescence polarization (AID 1964);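 also: purified POS-1 fused to maltose binding protein made in E. coli; potency of compounds blocking POS-1 binding to fluorescent RNA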
T1 sequence (G5EF15 whole entry): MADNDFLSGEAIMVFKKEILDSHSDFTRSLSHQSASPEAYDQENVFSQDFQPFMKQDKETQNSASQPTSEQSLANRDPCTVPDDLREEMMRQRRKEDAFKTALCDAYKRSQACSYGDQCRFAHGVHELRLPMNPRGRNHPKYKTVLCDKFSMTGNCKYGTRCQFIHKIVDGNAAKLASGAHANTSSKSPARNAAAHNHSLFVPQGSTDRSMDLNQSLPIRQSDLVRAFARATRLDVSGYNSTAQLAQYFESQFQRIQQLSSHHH

[2] = biological target: T2, Zinc finger protein mex-5 (Caenorhabditis elegans, UniProt Q9XUB2); test: MEX-5/TCR-2 RNA interaction inhibitors, dose response, biochemical, C. elegans, fluorescence polarization (AID 1960)
T2 sequence (Q9XUB2 whole entry): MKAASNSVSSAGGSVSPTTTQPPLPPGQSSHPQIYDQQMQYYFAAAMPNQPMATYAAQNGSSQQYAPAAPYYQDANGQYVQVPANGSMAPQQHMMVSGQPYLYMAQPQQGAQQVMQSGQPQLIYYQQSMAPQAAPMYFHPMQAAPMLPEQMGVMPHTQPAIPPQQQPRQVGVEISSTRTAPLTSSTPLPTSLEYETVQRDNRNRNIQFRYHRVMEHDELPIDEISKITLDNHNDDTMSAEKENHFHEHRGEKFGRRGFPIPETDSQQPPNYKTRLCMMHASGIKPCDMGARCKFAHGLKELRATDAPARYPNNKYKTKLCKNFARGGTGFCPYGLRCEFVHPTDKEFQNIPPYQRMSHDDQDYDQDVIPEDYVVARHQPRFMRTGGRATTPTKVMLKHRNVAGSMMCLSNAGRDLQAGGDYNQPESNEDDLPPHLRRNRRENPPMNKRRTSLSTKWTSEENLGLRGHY

[3] = biological target: T3, Intestinal-type alkaline phosphatase (Homo sapiens, UniProt P09923); test: activation of human intestinal alkaline phosphatase – biochemical, dose response (AID 488873); type: functional
[4] = biological target: Intestinal-type alkaline phosphatase (Mus musculus, UniProt P24822); test: mouse intestinal alkaline phosphatase activators, dose response, biochemical, luminescence, uHTS hits (AID 488783); type: functional
[5] = biological target: T4, Alkaline phosphatase, tissue-nonspecific isozyme (Homo sapiens, UniProt P05186); test: TNAP enzyme activators, dose response, selectivity assay for mouse IAP activator project, biochemical, TNAP isozyme, mouse IAP uHTS hits (AID 488880); type: functional
T4 sequence (P05186 whole entry): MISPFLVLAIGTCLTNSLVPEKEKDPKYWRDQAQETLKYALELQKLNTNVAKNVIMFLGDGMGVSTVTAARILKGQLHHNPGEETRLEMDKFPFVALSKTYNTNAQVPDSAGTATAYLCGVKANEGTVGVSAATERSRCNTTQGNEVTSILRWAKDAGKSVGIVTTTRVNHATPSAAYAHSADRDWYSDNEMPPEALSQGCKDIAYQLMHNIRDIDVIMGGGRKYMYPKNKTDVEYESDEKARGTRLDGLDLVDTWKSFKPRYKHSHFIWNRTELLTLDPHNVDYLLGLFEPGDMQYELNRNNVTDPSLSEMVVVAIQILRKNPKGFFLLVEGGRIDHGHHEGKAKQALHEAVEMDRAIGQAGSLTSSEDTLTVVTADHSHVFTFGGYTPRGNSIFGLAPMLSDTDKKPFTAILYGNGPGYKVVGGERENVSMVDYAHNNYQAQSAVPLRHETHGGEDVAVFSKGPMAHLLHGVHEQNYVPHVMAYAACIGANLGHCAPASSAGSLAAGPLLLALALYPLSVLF

[6] = biological target: T5, G-protein coupled receptor 55 (Homo sapiens, UniProt Q9Y2T6); test: GPR55 antagonists blocking LPI-driven arrestin recruitment, primary screen, imaging, U2OS, beta-arrestin-GFP, LPI agonist (AID 2013); type: functional;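 also: antagonist potency measured as reduced agonist-driven arrestin aggregation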
[7] = biological target: T6, Cannabinoid receptor 1 (Homo sapiens, UniProt P21554); test: SAR analysis of antagonists of the Cannabinoid Receptor 1 using an Image-Based Assay - Set 2. [Related pubchem assays (depositor defined):AID2013, AID2026]; type: functional
[8] = biological target: T7, G-protein coupled receptor 35 (Homo sapiens, UniProt Q9HC97); test: SAR analysis of Agonists of the GPR35 Receptor using an Image-Based Assay - Set 2. [Related pubchem assays (depositor defined):AID2013, AID2026]; type: functional
[9] = biological target: T8, Cannabinoid receptor 2 (Homo sapiens, UniProt P34972); test: SAR analysis of antagonists of the Cannabinoid Receptor 2 using an Image-Based Assay. [Related pubchem assays (depositor defined):AID2013, AID2026]; type: functional
[10] = biological target: T6, Cannabinoid receptor 1; test: SAR analysis of agonists of the Cannabinoid Receptor 1 using an Image-Based Assay - Set 2. [Related pubchem assays (depositor defined):AID2013, AID2026]; type: functional
[11] = biological target: T7, G-protein coupled receptor 35; test: SAR analysis of Antagonists of the GPR35 Receptor using an Image-Based Assay - Set 3. [Related pubchem assays (depositor defined):AID2013, AID2026]; type: functional
[12] = biological target: T5, G-protein coupled receptor 55; test: GPR55 antagonist potency of analogs, SAR follow-up, imaging, U2OS, beta-arrestin-GFP, LPI agonist, set 2 (AID 2820); type: functional
[13] = biological target: T6, Cannabinoid receptor 1; test: SAR analysis of antagonists of the Cannabinoid Receptor 1 using an Image-Based Assay - Set 4. [Related pubchem assays (depositor defined):AID2013, AID2026]; type: functional
[14] = biological target: T5, G-protein coupled receptor 55; test: SAR Analysis of Selective Antagonists of GPR55 using an Image-Based Assay - Set 4. [Related pubchem assays (depositor defined):AID2013, AID2026]; type: functional
[15] = biological target: T8, Cannabinoid receptor 2; test: SAR analysis of antagonists of the Cannabinoid Receptor 2 using an Image-Based Assay - Set 3. [Related pubchem assays (depositor defined):AID2013, AID2026]; type: functional
[16] = biological target: T8, Cannabinoid receptor 2; test: SAR analysis of agonists of the Cannabinoid Receptor 2 using an Image-Based Assay. [Related pubchem assays (depositor defined):AID2013, AID2026]; type: functional
[17] = biological target: T8, Cannabinoid receptor 2; test: SAR analysis of agonists of the Cannabinoid Receptor 2 using an Image-Based Assay - Set 3. [Related pubchem assays (depositor defined):AID2013, AID2026]; type: functional
[18] = biological target: SWI/SNF-related matrix-associated actin-dependent regulator of chromatin subfamily A member 2 (Homo sapiens, UniProt P51531); test: Luminescence-based cell-based high throughput dose response assay to identify activators of the function of SWI/SNF related, matrix associated, actin dependent regulator of chromatin, subfamily a, member 2 (SMARCA2, BRM).; type: functional
[19] = Counterscreen for activators of the function of SWI/SNF related, matrix associated, actin dependent regulator of chromatin, subfamily a, member 2 (SMARCA2, BRM): Luminescence-based cell-based high throughput dose response assay to identify non-selective compounds using the VP16 reporter assay.; type: functional
[20] = biological target: T3, Intestinal-type alkaline phosphatase; test: human intestinal alkaline phosphatase activators, dose response, biochemical, luminescence, uHTS hits (AID 463120); type: functional
[21] = biological target: T9, Hexokinase HKDC1 (Homo sapiens, UniProt Q2TB90); test: HKDC1 hexokinase activators, dose response, biochemical, W721R variant (AID 504730); type: functional
T9 sequence (Q2TB90 whole entry): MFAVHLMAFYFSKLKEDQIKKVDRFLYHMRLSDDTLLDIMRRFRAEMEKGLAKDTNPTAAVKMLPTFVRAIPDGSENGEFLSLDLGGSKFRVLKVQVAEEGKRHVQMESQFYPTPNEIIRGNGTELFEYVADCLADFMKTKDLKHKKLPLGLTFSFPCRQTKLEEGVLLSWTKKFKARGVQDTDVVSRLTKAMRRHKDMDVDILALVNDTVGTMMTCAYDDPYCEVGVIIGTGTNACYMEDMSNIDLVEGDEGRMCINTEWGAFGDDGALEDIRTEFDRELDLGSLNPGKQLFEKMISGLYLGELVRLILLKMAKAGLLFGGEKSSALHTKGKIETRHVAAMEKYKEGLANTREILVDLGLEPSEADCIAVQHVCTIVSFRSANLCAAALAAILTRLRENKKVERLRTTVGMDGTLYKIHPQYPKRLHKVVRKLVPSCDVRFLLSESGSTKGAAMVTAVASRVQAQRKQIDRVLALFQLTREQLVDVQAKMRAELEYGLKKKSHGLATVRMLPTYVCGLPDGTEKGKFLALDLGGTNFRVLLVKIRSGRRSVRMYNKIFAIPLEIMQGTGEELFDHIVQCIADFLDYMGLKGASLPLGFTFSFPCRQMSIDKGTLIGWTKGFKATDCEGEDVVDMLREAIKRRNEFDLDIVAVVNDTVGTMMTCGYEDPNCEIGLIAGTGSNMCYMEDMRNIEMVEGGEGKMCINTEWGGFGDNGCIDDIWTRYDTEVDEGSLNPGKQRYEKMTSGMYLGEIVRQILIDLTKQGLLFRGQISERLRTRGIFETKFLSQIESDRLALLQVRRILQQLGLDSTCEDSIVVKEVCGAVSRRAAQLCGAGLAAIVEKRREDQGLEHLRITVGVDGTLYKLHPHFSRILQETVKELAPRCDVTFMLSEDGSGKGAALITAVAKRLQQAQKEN

[22] = biological target: Nonstructural protein 1 (Influenza A virus, UniProt Q194T2); type: functional, Influenza A virus (A/California/07/2009(H1N1))
[23] = biological target: T10, Hexokinase-1 (Homo sapiens, UniProt P19367); test: hexokinase 1 activators, dose response, selectivity assay for HKDC1 activator project, biochemical (AID 504762); type: functional
T10 sequence (P19367 whole entry): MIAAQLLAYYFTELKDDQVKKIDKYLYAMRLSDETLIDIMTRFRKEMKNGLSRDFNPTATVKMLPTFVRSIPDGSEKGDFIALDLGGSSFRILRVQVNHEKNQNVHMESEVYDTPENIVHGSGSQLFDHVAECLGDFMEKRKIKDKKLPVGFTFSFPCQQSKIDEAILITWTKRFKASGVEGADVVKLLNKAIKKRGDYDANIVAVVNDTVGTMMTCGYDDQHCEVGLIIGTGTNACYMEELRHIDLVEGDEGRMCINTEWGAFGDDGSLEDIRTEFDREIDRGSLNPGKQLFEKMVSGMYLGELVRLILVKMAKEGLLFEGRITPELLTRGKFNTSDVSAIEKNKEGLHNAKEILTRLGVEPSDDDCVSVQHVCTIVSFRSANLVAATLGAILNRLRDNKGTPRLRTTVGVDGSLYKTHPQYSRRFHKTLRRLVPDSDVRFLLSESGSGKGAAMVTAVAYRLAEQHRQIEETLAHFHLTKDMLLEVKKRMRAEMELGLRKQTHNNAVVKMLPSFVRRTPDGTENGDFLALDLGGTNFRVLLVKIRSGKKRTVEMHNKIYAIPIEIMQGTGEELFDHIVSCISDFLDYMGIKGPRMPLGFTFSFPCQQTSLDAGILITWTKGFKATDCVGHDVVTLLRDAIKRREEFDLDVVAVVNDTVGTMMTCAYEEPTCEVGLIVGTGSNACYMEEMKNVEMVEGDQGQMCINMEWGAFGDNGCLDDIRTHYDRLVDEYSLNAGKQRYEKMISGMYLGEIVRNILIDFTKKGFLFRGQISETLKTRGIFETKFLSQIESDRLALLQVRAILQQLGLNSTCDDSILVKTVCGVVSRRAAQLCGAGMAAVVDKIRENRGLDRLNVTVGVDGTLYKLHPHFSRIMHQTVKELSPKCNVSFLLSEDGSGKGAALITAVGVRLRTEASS

[24] = biological target: Heat shock protein HSP 90-alpha (Homo sapiens, UniProt P07900); type: functional, organism-based
[25] = Shn3 3'UTR reporter inhibitors, dose response, cell-based, Clone20 osteoblasts, firefly luciferase, cherry-picked (AID 624132); type: functional;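 also: firefly luciferase luminescence from reporter carrying the Shn3 3'UTR in osteoblasts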

T3 sequence (P09923 whole entry): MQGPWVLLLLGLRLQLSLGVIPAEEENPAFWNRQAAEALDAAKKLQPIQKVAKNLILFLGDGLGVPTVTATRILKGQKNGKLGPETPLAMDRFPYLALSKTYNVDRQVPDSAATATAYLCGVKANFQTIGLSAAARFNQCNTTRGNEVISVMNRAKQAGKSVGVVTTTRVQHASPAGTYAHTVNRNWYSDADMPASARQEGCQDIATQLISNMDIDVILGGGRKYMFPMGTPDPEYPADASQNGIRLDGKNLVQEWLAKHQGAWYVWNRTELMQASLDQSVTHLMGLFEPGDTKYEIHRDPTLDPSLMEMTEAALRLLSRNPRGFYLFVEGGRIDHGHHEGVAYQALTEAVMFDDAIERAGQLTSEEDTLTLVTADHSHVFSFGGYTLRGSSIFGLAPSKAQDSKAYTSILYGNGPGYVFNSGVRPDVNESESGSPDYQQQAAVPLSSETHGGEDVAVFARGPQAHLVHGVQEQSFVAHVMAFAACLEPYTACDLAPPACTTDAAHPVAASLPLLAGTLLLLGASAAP
T6 sequence (P21554 whole entry): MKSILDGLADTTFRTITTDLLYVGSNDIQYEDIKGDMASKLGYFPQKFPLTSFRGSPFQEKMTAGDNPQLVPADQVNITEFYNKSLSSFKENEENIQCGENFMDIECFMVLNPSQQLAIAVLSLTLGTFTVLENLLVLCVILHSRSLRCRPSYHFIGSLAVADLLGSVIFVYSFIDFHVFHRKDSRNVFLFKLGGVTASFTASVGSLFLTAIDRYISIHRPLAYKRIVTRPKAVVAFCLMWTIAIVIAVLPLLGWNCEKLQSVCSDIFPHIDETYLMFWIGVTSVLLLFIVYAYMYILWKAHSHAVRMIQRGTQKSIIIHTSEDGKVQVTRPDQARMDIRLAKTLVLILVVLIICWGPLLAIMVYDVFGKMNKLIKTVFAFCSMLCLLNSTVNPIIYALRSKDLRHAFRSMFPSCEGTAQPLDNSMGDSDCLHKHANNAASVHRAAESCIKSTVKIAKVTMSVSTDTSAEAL
T8 sequence (P34972 whole entry): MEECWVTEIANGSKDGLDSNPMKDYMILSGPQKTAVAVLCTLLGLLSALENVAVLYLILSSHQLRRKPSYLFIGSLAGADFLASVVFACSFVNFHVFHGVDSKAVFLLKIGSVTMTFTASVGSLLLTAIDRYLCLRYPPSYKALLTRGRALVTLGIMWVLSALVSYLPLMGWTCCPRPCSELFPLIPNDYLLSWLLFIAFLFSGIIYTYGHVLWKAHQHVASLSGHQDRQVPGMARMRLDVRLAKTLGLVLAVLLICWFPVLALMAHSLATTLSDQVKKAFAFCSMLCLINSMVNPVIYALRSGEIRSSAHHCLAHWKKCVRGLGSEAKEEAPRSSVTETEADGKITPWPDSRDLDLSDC
T7 sequence (Q9HC97 whole entry): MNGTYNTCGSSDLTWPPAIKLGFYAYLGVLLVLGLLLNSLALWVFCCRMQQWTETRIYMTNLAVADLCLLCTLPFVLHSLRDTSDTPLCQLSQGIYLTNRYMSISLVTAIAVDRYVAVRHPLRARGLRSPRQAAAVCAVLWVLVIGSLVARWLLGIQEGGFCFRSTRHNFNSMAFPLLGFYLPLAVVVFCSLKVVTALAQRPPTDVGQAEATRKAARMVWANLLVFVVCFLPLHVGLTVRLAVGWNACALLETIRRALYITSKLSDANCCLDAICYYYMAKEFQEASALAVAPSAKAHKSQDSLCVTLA
T5 sequence (Q9Y2T6 whole entry): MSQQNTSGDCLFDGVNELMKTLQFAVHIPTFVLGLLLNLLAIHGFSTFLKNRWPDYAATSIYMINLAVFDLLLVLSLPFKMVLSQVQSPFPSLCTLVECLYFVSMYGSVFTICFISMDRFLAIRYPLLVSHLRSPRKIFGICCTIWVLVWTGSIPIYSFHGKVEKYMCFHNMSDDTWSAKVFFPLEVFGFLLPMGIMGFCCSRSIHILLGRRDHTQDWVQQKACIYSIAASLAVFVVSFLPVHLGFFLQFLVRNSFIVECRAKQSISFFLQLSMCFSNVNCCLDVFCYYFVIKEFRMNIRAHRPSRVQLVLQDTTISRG
Intestinal-type alkaline phosphatase (Mus musculus, UniProt P24822), sequence (P24822 whole entry): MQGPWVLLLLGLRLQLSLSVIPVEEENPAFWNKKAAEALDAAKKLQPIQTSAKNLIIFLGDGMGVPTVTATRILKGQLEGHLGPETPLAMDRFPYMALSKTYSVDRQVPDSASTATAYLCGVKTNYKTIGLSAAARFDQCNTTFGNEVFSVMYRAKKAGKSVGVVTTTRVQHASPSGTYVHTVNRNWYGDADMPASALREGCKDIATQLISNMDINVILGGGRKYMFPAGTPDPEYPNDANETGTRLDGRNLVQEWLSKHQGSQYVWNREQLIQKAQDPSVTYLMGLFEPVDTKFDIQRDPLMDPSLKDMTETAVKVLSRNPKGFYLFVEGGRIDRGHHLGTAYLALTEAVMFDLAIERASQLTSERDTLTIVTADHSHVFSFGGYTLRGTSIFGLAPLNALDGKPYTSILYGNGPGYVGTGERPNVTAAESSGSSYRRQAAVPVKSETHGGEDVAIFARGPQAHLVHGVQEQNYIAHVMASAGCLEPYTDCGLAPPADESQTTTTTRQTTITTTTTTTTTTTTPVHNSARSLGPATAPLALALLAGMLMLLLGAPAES
Nonstructural protein 1, sequence (Q194T2 whole entry): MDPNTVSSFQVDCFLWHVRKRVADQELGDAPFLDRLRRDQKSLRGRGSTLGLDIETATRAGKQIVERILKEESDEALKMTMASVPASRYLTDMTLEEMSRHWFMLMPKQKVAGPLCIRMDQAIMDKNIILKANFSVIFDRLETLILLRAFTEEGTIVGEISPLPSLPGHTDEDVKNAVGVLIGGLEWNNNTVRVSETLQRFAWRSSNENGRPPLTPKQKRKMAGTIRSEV
SWI/SNF-related matrix-associated actin-dependent regulator of chromatin subfamily A member 2, sequence (P51531 whole entry): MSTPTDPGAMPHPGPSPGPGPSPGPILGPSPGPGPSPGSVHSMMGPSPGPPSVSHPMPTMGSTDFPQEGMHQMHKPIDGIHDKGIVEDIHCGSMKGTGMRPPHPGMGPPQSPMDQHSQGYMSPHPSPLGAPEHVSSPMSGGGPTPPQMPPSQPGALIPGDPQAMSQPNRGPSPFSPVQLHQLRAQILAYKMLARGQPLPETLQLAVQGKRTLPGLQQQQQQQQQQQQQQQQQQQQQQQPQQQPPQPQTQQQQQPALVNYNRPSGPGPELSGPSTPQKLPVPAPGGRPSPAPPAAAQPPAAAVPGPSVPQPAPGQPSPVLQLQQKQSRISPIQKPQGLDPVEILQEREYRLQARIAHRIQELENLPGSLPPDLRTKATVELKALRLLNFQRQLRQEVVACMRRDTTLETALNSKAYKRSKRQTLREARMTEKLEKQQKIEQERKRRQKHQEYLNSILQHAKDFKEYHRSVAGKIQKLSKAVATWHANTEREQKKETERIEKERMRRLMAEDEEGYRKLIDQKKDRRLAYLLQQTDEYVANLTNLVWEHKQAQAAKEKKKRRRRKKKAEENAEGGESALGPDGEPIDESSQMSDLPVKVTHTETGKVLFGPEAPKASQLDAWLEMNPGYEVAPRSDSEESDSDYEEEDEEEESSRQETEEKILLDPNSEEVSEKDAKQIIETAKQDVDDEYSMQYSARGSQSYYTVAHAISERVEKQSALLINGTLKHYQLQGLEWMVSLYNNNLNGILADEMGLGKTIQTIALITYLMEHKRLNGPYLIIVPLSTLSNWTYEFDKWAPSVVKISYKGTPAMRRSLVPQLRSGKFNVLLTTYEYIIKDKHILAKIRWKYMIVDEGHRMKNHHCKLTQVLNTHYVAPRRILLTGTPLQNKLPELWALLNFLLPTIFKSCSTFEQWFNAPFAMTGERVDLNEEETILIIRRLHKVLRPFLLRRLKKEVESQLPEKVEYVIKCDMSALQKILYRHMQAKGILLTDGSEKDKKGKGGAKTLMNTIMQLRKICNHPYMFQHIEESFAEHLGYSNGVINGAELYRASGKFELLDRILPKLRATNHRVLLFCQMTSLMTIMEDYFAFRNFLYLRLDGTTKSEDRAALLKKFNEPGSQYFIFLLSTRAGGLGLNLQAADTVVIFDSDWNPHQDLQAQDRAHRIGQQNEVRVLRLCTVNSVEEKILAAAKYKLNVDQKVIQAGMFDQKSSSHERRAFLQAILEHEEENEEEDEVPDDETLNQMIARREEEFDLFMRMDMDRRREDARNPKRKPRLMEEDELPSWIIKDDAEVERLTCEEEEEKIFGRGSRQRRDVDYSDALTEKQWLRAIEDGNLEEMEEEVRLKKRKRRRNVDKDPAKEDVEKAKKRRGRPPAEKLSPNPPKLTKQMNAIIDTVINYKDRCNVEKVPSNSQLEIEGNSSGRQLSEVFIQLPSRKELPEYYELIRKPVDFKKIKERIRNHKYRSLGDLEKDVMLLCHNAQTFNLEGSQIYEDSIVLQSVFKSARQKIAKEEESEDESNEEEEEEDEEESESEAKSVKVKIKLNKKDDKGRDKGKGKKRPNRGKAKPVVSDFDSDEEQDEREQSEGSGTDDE

| SMILES | EC50 [3] | EC50 [4] | EC50 [5] | IC50 [6] | IC50 [7] | EC50 [8] | IC50 [9] | EC50 [10] | IC50 [11] | IC50 [12] | EC50 [16] | other results |
| --- | --- | --- | --- | --- | --- | --- | --- | --- | --- | --- | --- | --- |
| Cc1ccc(N2C(=O)/C(=C/c3ccc(CN(CCC#N)S(C)(=O)=O)o3)C(=O)NC2=S)cc1 | 36.2 µM (active) | 80.5 µM (active) | 40.4 µM (active) | – | – | – | – | – | – | – | – | EC50 [1]: > 300 µM (not active); EC50 [2]: 37.8 µM (active) |
| CCOC(=O)c1cc2c(=O)n3ccccc3nc2n(Cc2ccccc2)c1=N | – | – | – | < 0.5 µM (active) | > 32 µM (inactive) | > 32 µM (inactive) | > 32 µM (inactive) | > 32 µM (inactive) | > 32 µM (inactive) | 0.878 µM (active) | > 32 µM (inactive) | IC50 [13]: 0.069 µM (active); IC50 [14]: > 32 µM (inactive); IC50 [15]: > 32 µM (inactive); EC50 [17]: > 32 µM (inactive) |
| Cc1ccc2nc3c(cc(C(=O)NCc4ccco4)c(=N)n3C3CCCC3)c(=O)n2c1 | – | – | – | 3.98 µM (active) | > 32 µM (inactive) | > 32 µM (inactive) | > 32 µM (inactive) | > 32 µM (inactive) | > 32 µM (inactive) | 0.354 µM (active) | > 32 µM (inactive) | EC50 [18]: > 91.2 µM (inactive); EC50 [19]: > 91.2 µM (inactive) |
| Cc1cc(C)c(S(=O)(=O)Nc2ccc(O)c(Sc3nnc[nH]3)c2)cc1C | 22.5 µM (active) | 24.7 µM (active) | 42.4 µM (active) | – | – | – | – | – | – | – | – | – |
| Cc1ccc(O)c(-c2cc(C(=O)NCc3ccc4c(c3)OCO4)[nH]n2)c1 | – | – | – | – | – | – | – | – | – | – | – | EC50 [20]: 13 µM (active) |
| CC(N/N=C(\S)N1CCN(c2ccccn2)CC1)c1nccc2ccccc12 (stereo unspecified) | – | – | – | – | – | – | – | – | – | – | – | EC50 [21]: 2.19 µM (active); IC50 [22]: 2.43 µM (active); EC50 [23]: > 80 µM (inactive); AC50 [24]: 2.58 µM (active); AC50 [25]: < 0.26 µM (active) |
